Some test systems named below: A549 NSCLC; BT-549 breast; COLO 205 colon; HCT-116 colon; HCT-15 colon; K-562 leukemia; KM12 colon; LOX IMVI melanoma; M14 melanoma; MDA-MB-231 breast; NCI-H522 lung; OVCAR-3 ovarian; OVCAR-5 ovarian; OVCAR-8 ovarian; PC-3 prostate; SF-295 CNS; SK-MEL-2 melanoma; U251 CNS; UACC-62 melanoma.
What all share (test): growth of human tumour cells (NCI), 48 h

Molecules are shown by their SMILES.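 Each compound was tested at five concentrations against cells in 96-well plates for 48 hours. TGI marks complete inhibition of growth.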

With `Clc1ccc(N=C/C=C/Nc2ccc(Cl)cn2)nc1`, the TGI with A549 NSCLC was 29.1 µM; with BT-549 breast it was 31 µM; in the test with COLO 205 colon, 25.3 µM; with HCT-116 colon it was 25 µM; in the test with HCT-15 colon it was 13 µM; in the test with K-562 leukemia, 23.2 µM. In addition, the TGI with KM12 colon turned out to be 21 µM; with LOX IMVI melanoma, 19.8 µM; in the test with M14 melanoma it was 30.2 µM; with MDA-MB-231 breast it was 16.2 µM; in the test on NCI-H522 lung, 28.4 µM; with OVCAR-3 ovarian, 26.6 µM. In addition, the TGI in the test with OVCAR-5 ovarian worked out at 30 µM; in the test on OVCAR-8 ovarian, 23.3 µM; in the test on PC-3 prostate, 27.6 µM; in the test on SF-295 CNS, 30.6 µM; in the test on SK-MEL-2 melanoma it was 29.2 µM; with U251 CNS, 20.7 µM. In the test on UACC-62 melanoma, this compound registered a TGI of 26.2 µM.
`S=c1[nH]nc(COc2ccc3c(c2)CCCC3)n1/N=C/c1ccc(Cl)cc1`: the TGI with A549 NSCLC came out at 35.8 µM; in the test on BT-549 breast, 31.3 µM; in the test with COLO 205 colon it was 31.2 µM; in the test with HCT-116 colon, 28.6 µM; in the test on HCT-15 colon, 41 µM; in the test with K-562 leukemia it was 50.2 µM. For the same compound, the TGI was 31.7 µM in the test with KM12 colon; 37 µM in the test with LOX IMVI melanoma; 34.5 µM in the test on M14 melanoma; 44.9 µM in the test with MDA-MB-231 breast; 28.9 µM in the test on NCI-H522 lung; 30.7 µM with OVCAR-3 ovarian. For the same compound, the TGI was found to be 32 µM in the test with OVCAR-5 ovarian; 31.8 µM in the test on OVCAR-8 ovarian; 31.2 µM with PC-3 prostate; 33.7 µM in the test on SF-295 CNS; 36.2 µM with SK-MEL-2 melanoma; 34.6 µM in the test with U251 CNS. Further, in the test with UACC-62 melanoma, the TGI stood at 33.7 µM.
On to `COc1ccc(OC)c(C2CCc3nc4nc(N)nc(N)c4cc3C2)c1` (centres undefined), for which the TGI in the test on A549 NSCLC came out at 31.4 µM; with BT-549 breast, 16.6 µM; in the test with COLO 205 colon it was 17.9 µM; in the test on HCT-116 colon it was 3.46 µM; in the test on HCT-15 colon, 47.5 µM; in the test with K-562 leukemia it was 6.35 µM. The TGI was found to be 5.14 µM in the test on KM12 colon; 8.14 µM in the test on LOX IMVI melanoma; 3.44 µM in the test on M14 melanoma; 5.4 µM in the test on MDA-MB-231 breast; 4.94 µM with NCI-H522 lung; 3.54 µM in the test with OVCAR-3 ovarian. In addition, the TGI in the test with OVCAR-5 ovarian turned out to be 23.3 µM; with OVCAR-8 ovarian, 6.93 µM; with PC-3 prostate, 11.5 µM; with SF-295 CNS it was 26.5 µM; in the test on SK-MEL-2 melanoma, 4.35 µM; with U251 CNS, 3.28 µM. This compound also displayed a TGI in the test with UACC-62 melanoma of 4.18 µM.
On to `C/C(=N/NC(=S)Nc1ccccc1Cl)c1ccccn1`, for which the TGI in the test on A549 NSCLC was found to be 29.6 µM; in the test on BT-549 breast, 19.9 µM; in the test on COLO 205 colon it was 2.54 µM; in the test with HCT-116 colon it was 14.2 µM; with HCT-15 colon, 18 µM; in the test on K-562 leukemia, 3.25 µM. The TGI amounted to 18.7 µM with KM12 colon; 16 µM in the test on LOX IMVI melanoma; 3.42 µM with M14 melanoma; 17.3 µM in the test with MDA-MB-231 breast; 8.19 µM with NCI-H522 lung; 10.9 µM with OVCAR-3 ovarian. For the same compound, the TGI with OVCAR-5 ovarian came out at 5.26 µM; in the test with OVCAR-8 ovarian, 9.18 µM; in the test on PC-3 prostate, 27.3 µM; with SF-295 CNS, 9.57 µM; in the test with SK-MEL-2 melanoma, 9.47 µM; with U251 CNS, 15.3 µM. In addition, the TGI in the test on UACC-62 melanoma came out at 7.49 µM.
For `CCN(CC)C(=S)SS(=O)(=O)c1ccccc1C(=O)O`, the TGI in the test on A549 NSCLC, in the test with BT-549 breast, with COLO 205 colon, in the test on HCT-116 colon, in the test on HCT-15 colon and in the test with K-562 leukemia was above 100 µM throughout. Also, the TGI in the test on KM12 colon is above 100 µM; in the test with LOX IMVI melanoma, above 100 µM; in the test on M14 melanoma, above 100 µM; in the test with MDA-MB-231 breast it was above 100 µM; with NCI-H522 lung, above 36.3 µM; with OVCAR-3 ovarian, above 100 µM. For the same compound, the TGI in the test on OVCAR-5 ovarian, in the test on OVCAR-8 ovarian, in the test on PC-3 prostate, in the test with SF-295 CNS, with SK-MEL-2 melanoma and in the test with U251 CNS was above 100 µM throughout. Moreover, the TGI in the test on UACC-62 melanoma was above 100 µM.
`Cc1ccc(-c2c(C#N)c(-c3ccc(Cl)cc3)c(C#N)c(=O)n2NS(=O)(=O)c2ccccc2)cc1`: the TGI in the test on A549 NSCLC, in the test on BT-549 breast, in the test on COLO 205 colon, in the test with HCT-116 colon, in the test with HCT-15 colon and with K-562 leukemia was above 100 µM throughout. Further, the TGI with KM12 colon, in the test with LOX IMVI melanoma, in the test with M14 melanoma, in the test with MDA-MB-231 breast, with NCI-H522 lung and with OVCAR-5 ovarian was above 100 µM in each case. In addition, the TGI with OVCAR-8 ovarian, with PC-3 prostate, in the test on SF-295 CNS, with SK-MEL-2 melanoma, in the test with U251 CNS and in the test with UACC-62 melanoma was above 100 µM throughout.
For `CCOP(=O)(OCC)C(NC(=O)OCC(Cl)(Cl)Cl)n1nnc(C(=O)OC)c1C(=O)OC` (centres undefined), the TGI in the test with A549 NSCLC, in the test with BT-549 breast, with COLO 205 colon, with HCT-116 colon, with HCT-15 colon and in the test on K-562 leukemia was above 100 µM throughout. The TGI in the test on KM12 colon, in the test with LOX IMVI melanoma, in the test with M14 melanoma, with MDA-MB-231 breast, with NCI-H522 lung and with OVCAR-3 ovarian was above 100 µM throughout. Besides, the TGI in the test with OVCAR-8 ovarian, in the test on PC-3 prostate, in the test with SF-295 CNS, with SK-MEL-2 melanoma, in the test with U251 CNS and in the test on UACC-62 melanoma was above 100 µM in each case.
Take `Cc1cc2nc3n[nH]c(N)c3nc2cc1C`: the TGI in the test with A549 NSCLC, in the test on BT-549 breast, with COLO 205 colon, with HCT-116 colon, in the test with HCT-15 colon and with K-562 leukemia was above 100 µM in each case. Moreover, the TGI with KM12 colon, with LOX IMVI melanoma, in the test on M14 melanoma, in the test on MDA-MB-231 breast, in the test with NCI-H522 lung and in the test with OVCAR-5 ovarian was above 100 µM throughout. The TGI in the test with OVCAR-8 ovarian, with PC-3 prostate, with SF-295 CNS, in the test with SK-MEL-2 melanoma, with U251 CNS and in the test on UACC-62 melanoma was above 100 µM each time.

For the origin of these results see PubChem BioAssay (NCI).
